This note sets out measurements from patent publication US20150004134A1, “TREATMENT OF CANCER WITH HETEROCYCLIC INHIBITORS OF GLUTAMINASE” (Calithera Biosciences, Inc., priority 2012, published 2015).

One data set deals with Caco-2 cell monolayers. In words: Caco-2 Permeability Assay. The class given is in vitro ADME. The following applies: for Permeability Classification: absorption potential. From the text:
Caco-2 cells are commonly used in a confluent monolayer on a cell culture insert filter. When cultured in this format and under specific conditions, the cells become differentiated and polarized such that their phenotype, morphologically and functionally resembles the enterocytes lining the small intestine. The cell monolayer provides a physical and biochemical barrier to the passage of small molecules, and is widely used across the pharmaceutical industry as an in vitro model of the human small intestinal mucosa to predict the absorption of orally administered drugs (Hidalgo et al., Gastroenterology, 1989; Artursson, J. Pharm. Sci., 1990). The correlation between the in vitro apparent permeability (P ? app) across Caco-2 monolayers and the in vivo absorption is well established (Artursson et al., Biochem. Biophys. Res. Comm., 1991).
The present assay was used to determine the bidirectional permeability of the compounds of the invention through Caco-2 cell monolayers. Caco-2 cells were grown in confluent monolayers where the media of both the apical (A) and basolateral (B) sides were at pH 7.4. Compounds were dosed at 1 μM in the presence of 200 μM Lucifer Yellow, on the apical side (A→B) or the basolateral side (B→A) for assessment, in duplicate.
The absorption potential of compounds were classified as either Low (P-app <1×10^−6 CM/S) or High (P-app >1×10^−6 CM/S).
On the technique in general: Caco-2 cells form a polarised layer with tight junctions and transporters.

The subject of the next data set is P493-6 (myc "on") cells. In words: Cell Proliferation Assay. Type of data set: cell-based. To be noted: P493-6, 72 h, read-out: Cell prolif P493 72 h IC50, P493 cells, 72 h. An outline of the steps:
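P493-6 cells with myc on, 10,000 per well in RPMI/10% FBS, exposed to serially diluted compound (0.5% DMSO final) for 72 h at 37 °C, 5% CO2. Antiproliferative effect read by Cell Titer Glo luminescence or Viacount FACS viability count.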

As for `O=C(Cc1cccc(OC(F)(F)F)c1)Nc1ccc(CCCCc2nnc(NC(=O)[C@@H](O)c3ccccc3)s2)nn1` [Compound 703], in the data set with Caco-2 cell monolayers, the “Significant Efflux” value is listed as “Yes (efflux ratios being significant when greater than or equal to 3 when the Papp (B→A) was greater than or equal to 1×10^−6 cm/s)” and the “Permeability Classification” value is on record as “High (High (P-app >1×10^−6 CM/S))”.
With `O=C(Cc1ccccc1Cl)Nc1ccc(CCCCc2nnc(NC(=O)Cc3ccccc3F)s2)nn1` [Compound 533], in the data set on Caco-2 cell monolayers, the “Significant Efflux” value is on record as “Yes (efflux ratios being significant when greater than or equal to 3 when the Papp (B→A) was greater than or equal to 1×10^−6 cm/s)” and the “Permeability Classification” value was “High (High (P-app >1×10^−6 CM/S))”.
The like results for `O=C(Cc1cccc(OC(F)(F)F)c1)Nc1ccc(CCCCc2nnc(NC(=O)Cc3cccc(F)c3)s2)nn1` [Compound 679] were, in that order, “No” and “High (High (P-app >1×10^−6 CM/S))”.
Take `CC(C(=O)Nc1ccc(CCCCc2nnc(NC(=O)Cc3cccc(CNC(=O)OC(C)(C)C)c3)s2)nn1)c1ccccc1` (stereo not drawn) [Compound 436]: in the data set with Caco-2 cell monolayers, the “Significant Efflux” value was “Yes (efflux ratios being significant when greater than or equal to 3 when the Papp (B→A) was greater than or equal to 1×10^−6 cm/s)” and the “Permeability Classification” value is listed as “High (High (P-app >1×10^−6 CM/S))”.
As to `O=C(Cc1cccc(OC(F)(F)F)c1)Nc1ccc(CCCCc2nnc(NC(=O)Cc3ccccn3)s2)nn1` [Compound 670], in the data set with Caco-2 cell monolayers, the “Significant Efflux” value is given as “Yes (efflux ratios being significant when greater than or equal to 3 when the Papp (B→A) was greater than or equal to 1×10^−6 cm/s)” and the “Permeability Classification” value is recorded as “High (High (P-app >1×10^−6 CM/S))”.
Turning to `O=C(Cc1ccccc1)Nc1ccc(CCCCc2nnc(NC(=O)Cc3ccccn3)s2)nn1` [Compound 354], the 50% inhibitory concentration (IC50) with P493-6 (myc "on") cells is 47 nM. Also, in the data set with Caco-2 cell monolayers, the “Significant Efflux” value was “Yes (efflux ratios being significant when greater than or equal to 3 when the Papp (B→A) was greater than or equal to 1×10^−6 cm/s)” and the “Permeability Classification” value is given as “High (High (P-app >1×10^−6 CM/S))”.
With `CC(C)(C)OC(=O)NCc1cccc(CC(=O)Nc2nnc(CCCCc3ccc(NC(=O)Cc4ccccc4)nn3)s2)c1` [Compound 339], the IC50 in the data set with P493-6 (myc "on") cells was 9 nM. Besides, in the data set on Caco-2 cell monolayers, the “Significant Efflux” value is recorded as “Yes (efflux ratios being significant when greater than or equal to 3 when the Papp (B→A) was greater than or equal to 1×10^−6 cm/s)” and the “Permeability Classification” value is “High (High (P-app >1×10^−6 CM/S))”.
Consider `O=C(Cc1cccc(OC(F)(F)F)c1)Nc1ccc(CCCCc2nnc(NC(=O)[C@H](O)c3ccccc3)s2)nn1` [Compound 705], for which, in the data set on Caco-2 cell monolayers, the “Significant Efflux” value was “Yes (efflux ratios being significant when greater than or equal to 3 when the Papp (B→A) was greater than or equal to 1×10^−6 cm/s)” and the “Permeability Classification” value is “High (High (P-app >1×10^−6 CM/S))”.

As a reminder, the IC50 is the concentration at which inhibition is half-maximal.
